Results as given in patent publication US20190315823A1, “SMALL CATIONIC ANTI-BIOFILM AND IDR PEPTIDES” (priority 2013, published 2019).
Like-named read-outs stand apart in the source and are kept apart here. Marks after values point to notes of the source that are not given here. Peptide text beside a SMILES is read from it.

What was measured:
Assay type in all cases: cell-based
[1] = system: human peripheral blood mononuclear cells (MCP-1); assay: SPOT-synthesized derivative screen: production of chemokine MCP-1; settings: No LPS
Procedure, shortened: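 MCP-1 was quantified by capture ELISA in cleared culture supernatants of treated human peripheral blood mononuclear cells. Cells came from heparinized volunteer blood via Ficoll gradient and were seeded at 0.75 to 1×10^6 cells/ml (37 °C, 5% CO2).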

P. aeruginosa biofilm = system: P. aeruginosa biofilm
Procedure: (§1) Methods of assessment of anti-biofilm activity—Biofilm formation was initially analyzed using a static abiotic solid surface assay as described elsewhere (de la Fuente-Nunez et al., 2012). […] Planktonic cells were removed, biofilm cells adhering to the side of the tubes were stained with crystal violet, and absorbance at 595 nm was measured using a microtiter plate reader (Bio-Tek Instruments Inc., United States). Some peptides were screened against two Gram negative organisms, P. aeruginosa and K. pneumoniae using a Bioflux apparatus (AutoMate Scientific, Berkeley, Calif.; http://www.autom8.com/bioflux_biofilm.html), which allows for the high-throughput, real-time analysis of biofilms.

[2] = system: LPS-stimulated human peripheral blood mononuclear cells (IL1-β); settings: cells stimulated with 10 ng/ml LPS
S. aureus biofilm = system: S. aureus biofilm
Procedure: as §1

S. aureus biofilms = assay: checkerboard titration biofilm synergy (MBIC, FIC)
Procedure: Peptides and various conventional antibiotics were analyzed by checkerboard titration into microtiter trays using CLSI methods (Wiegand, I., K. Hilpert, and R. E. W. Hancock. 2008. Nature Protocols 3:163-175), bacteria added and, after overnight incubation at 37° C., the residual biofilm assessed by the crystal violet method mentioned in the body of the grant, with an A595 of 0.2 considered as 100% biofilm inhibition. The effects of the peptide in reducing the minimal biofilm inhibitory concentration (MBIC) of the antibiotic and vice versa were assessed using the Fractional Inhibitory Concentration (FIC) method whereby ΣFTC=FICA+FICB=(CA/MICA)+(CB/MICB), where MBICA and MBICB are the MBICs of peptide A and antibiotic B alone, respectively, and CA and CB (expressed in μg/ml) are the MICs of the drugs in combination. This conventional clinical microbiology assay is interpreted as follows

[3] = Table 12A, background subtracted (21.3 pg/ml)
[4] = Table 12A, 1002-2013 compared to LPS control of 889 pg/ml
[5] = Table 12A, LPS alone 984 pg/ml, starred values (1002-2013) determined separately, LPS alone 889 pg/ml
[6] = concentration that reduced biofilm growth by 50%
[7] = Table 12, human PBMC, peptide at ~18-24 μM
[8] = Table 12, human PBMC, peptide at ~18-24 μM, background subtracted 139 (HH2 derivatives), 170 (1018 derivatives), 242 (1002 and hybrid peptides) pg/ml
[9] = Table 12, LPS alone 1313 (HH2 derivatives), 1927 (1018 derivatives), 2455 (1002 and hybrid peptides) pg/ml

Row | SMILES | Fold increase in MCP1 cf. untreated cells ([1]; Table 12A) | MCP1 [1, 3] [pg/mL] | MBIC50 P. aeruginosa (P. aeruginosa biofilm; biofilm) [µg/mL] | Fold change in IL1β relative to no peptide LPS stimulated cells [2, 4] | IL1β Production (pg/ml) [2, 5] | MBIC50 S. aureus (S. aureus biofilm; [6]) [µg/mL] | MBIC50 P. aeruginosa (P. aeruginosa biofilm; [6]) [µg/mL] | IL1β Production [2, 5] [pg/mL] | MBIC50 S. aureus (S. aureus biofilm; biofilm) [µg/mL] | Fold increase in MCP1 cf. untreated cells [1, 7] | MCP1 [1, 8] [pg/mL] | Fold change in IL1β relative to no peptide LPS stimulated cells ([2]; Table 12) | IL1β Production [2, 9] [pg/mL] | FIC (S. aureus biofilms; antibiotic in combination with peptide DJK6) | Fold decrease in antibiotic concentration (S. aureus biofilms; in the presence of peptide DJK6)
1 | CC[C@H](C)[C@H](NC(=O)[C@H](CCCNC(=N)N)NC(=O)[C@H](CC(C)C)NC(=O)[C@H](CCC(N)=O)NC(=O)[C@@H](N)C(C)C)C(=O)N[C@@H](CCCNC(=N)N)C(=O)N[C@H](C(=O)N[C@@H](CCCCN)C(=O)N[C@H](C(=O)N[C@H](C(=O)N[C@@H](CCCNC(=N)N)C(=O)N[C@@H](CCCCN)C(N)=O)[C@@H](C)CC)C(C)C)C(C)C [Peptide 2011] (H-VQLRIRVKVIRK-NH2; N-terminus assumed) | 38 | 796 | 10 | 0.62 | 550* pg/ml |  |  |  |  |  |  |  |  |  | 
2 | CC[C@H](C)[C@H](NC(=O)[C@H](CCCNC(=N)N)NC(=O)[C@@H](NC(=O)[C@H](C)NC(=O)[C@@H](NC(=O)[C@@H](NC(=O)[C@H](CC(C)C)NC(=O)[C@H](CCCNC(=N)N)NC(=O)[C@@H](N)C(C)C)[C@@H](C)CC)C(C)C)C(C)C)C(=O)N[C@@H](CCCNC(=N)N)C(=O)N[C@@H](CCCNC(=N)N)C(=O)N[C@@H](CCCNC(=N)N)C(N)=O [Peptide 2002] (H-VRLIVAVRIRRR-NH2; N-terminus assumed) | 152 | 3215 |  | 0.30 |  | 20 | 2.5 | 293 |  |  |  |  |  |  | 
3 | CC[C@H](C)[C@H](NC(=O)[C@H](CCCNC(=N)N)NC(=O)[C@@H](NC(=O)[C@H](CCCNC(=N)N)NC(=O)[C@@H](NC(=O)[C@@H](NC(=O)[C@H](CC(C)C)NC(=O)[C@H](CCCNC(=N)N)NC(=O)[C@@H](N)C(C)C)[C@@H](C)CC)C(C)C)C(C)C)C(=O)N[C@@H](Cc1c[nH]c2ccccc12)C(=O)N[C@@H](CCCNC(=N)N)C(=O)N[C@@H](CCCNC(=N)N)C(N)=O [Peptide 2005] (H-VRLIVRVRIWRR-NH2; N-terminus assumed) | 837 | 17826 |  | 0.10 |  | 10 | 2.5 | 101 |  |  |  |  |  |  | 
4 | CC[C@H](C)[C@H](NC(=O)[C@H](CCCNC(=N)N)NC(=O)[C@@H](NC(=O)[C@H](CCCCN)NC(=O)[C@@H](NC(=O)[C@@H](NC(=O)[C@H](CC(C)C)NC(=O)[C@H](CCCNC(=N)N)NC(=O)[C@@H](N)CCCNC(=N)N)[C@@H](C)CC)C(C)C)C(C)C)C(=O)N[C@@H](Cc1c[nH]c2ccccc12)C(=O)N[C@@H](CCCNC(=N)N)C(=O)N[C@@H](CCCNC(=N)N)C(N)=O [Peptide 2007] (H-RRLIVKVRIWRR-NH2; N-terminus assumed) | 386 | 7954 | 5 | 0.88 |  |  |  | 867 | 10 |  |  |  |  |  | 
5 | CC[C@H](C)[C@H](NC(=O)[C@H](CCCNC(=N)N)NC(=O)[C@H](Cc1c[nH]c2ccccc12)NC(=O)[C@H](CCCNC(=N)N)NC(=O)[C@@H](NC(=O)[C@H](CC(C)C)NC(=O)[C@H](Cc1c[nH]c2ccccc12)NC(=O)[C@H](CCCNC(=N)N)NC(=O)[C@H](CCC(N)=O)NC(=O)[C@@H](N)CCCCN)[C@@H](C)CC)C(=O)N[C@@H](CCCNC(=N)N)C(=O)N[C@@H](CCCCN)C(N)=O [Peptide 2010] (H-KQRWLIRWRIRK-NH2; N-terminus assumed) | 266 | 5649 | 2.5 | 0.42 | 377* pg/ml |  |  |  |  |  |  |  |  |  | 
6 | CC[C@H](C)[C@H](NC(=O)[C@@H](NC(=O)[C@H](CCCCN)NC(=O)[C@@H](NC(=O)[C@H](CCCNC(=N)N)NC(=O)[C@H](CCCNC(=N)N)NC(=O)[C@@H](NC(=O)[C@H](CCCNC(=N)N)NC(=O)[C@H](CCC(N)=O)NC(=O)[C@@H](N)Cc1c[nH]c2ccccc12)C(C)C)C(C)C)C(C)C)C(=O)N[C@@H](CCCNC(=N)N)C(=O)N[C@@H](CCCCN)C(N)=O [Peptide 2013] (H-WQRVRRVKVIRK-NH2; N-terminus assumed) | 31 | 645 | 20 | 0.93 | 830* pg/ml |  |  |  | >80 |  |  |  |  |  | 
7 | CC[C@H](C)[C@H](NC(=O)[C@H](CCCNC(=N)N)NC(=O)[C@H](Cc1c[nH]c2ccccc12)NC(=O)[C@@H](NC(=O)[C@@H](NC(=O)[C@H](CC(C)C)NC(=O)[C@H](Cc1c[nH]c2ccccc12)NC(=O)[C@H](CCCNC(=N)N)NC(=O)[C@H](CCC(N)=O)NC(=O)[C@@H](N)C(C)C)[C@@H](C)CC)C(C)C)C(=O)N[C@@H](CCCNC(=N)N)C(=O)N[C@@H](CCCCN)C(N)=O [Peptide 1002] (H-VQRWLIVWRIRK-NH2; N-terminus assumed) | 576 | 11994 | 5 | 0.13 | 111* pg/ml |  |  |  |  | 3.5 | 603.2 | 0.05 | 127 |  | 
8 | CC[C@H](C)[C@H](NC(=O)[C@H](CCCNC(=N)N)NC(=O)[C@H](Cc1c[nH]c2ccccc12)NC(=O)[C@H](CCCNC(=N)N)NC(=O)[C@@H](NC(=O)[C@H](CC(C)C)NC(=O)[C@H](CC(C)C)NC(=O)[C@H](CCCNC(=N)N)NC(=O)[C@H](Cc1c[nH]c2ccccc12)NC(=O)[C@@H](N)CCCCN)[C@@H](C)CC)C(=O)N[C@@H](CCC(N)=O)C(=O)N[C@@H](CCCCN)C(N)=O [Peptide 2009] (H-KWRLLIRWRIQK-NH2; N-terminus assumed) | 586 | 12475 | 2.5 | 0.08 | 74* pg/ml |  |  |  |  |  |  |  |  |  | 
9 | CN[C@H](CC(C)C)C(=O)N[C@H]1C(=O)N[C@@H](CC(N)=O)C(=O)N[C@H]2C(=O)N[C@H]3C(=O)N[C@H](C(=O)N[C@H](C(=O)O)c4cc(O)cc(O)c4-c4cc3ccc4O)[C@H](O)c3ccc(c(Cl)c3)Oc3cc2cc(c3O[C@@H]2O[C@H](CO)[C@@H](O)[C@H](O)[C@H]2O[C@H]2C[C@](C)(N)[C@H](O)[C@H](C)O2)Oc2ccc(cc2Cl)[C@H]1O [Vancomycin] |  |  |  |  |  |  |  |  |  |  |  |  |  | 0.4 | 16
10 | CC[C@H](C)[C@H](NC(=O)[C@H](CCCNC(=N)N)NC(=O)[C@H](CC(C)C)NC(=O)[C@H](CCC(N)=O)NC(=O)[C@@H](N)C(C)C)C(=O)N[C@@H](CCCNC(=N)N)C(=O)N[C@H](C(=O)N[C@@H](C)C(=O)N[C@H](C(=O)N[C@H](C(=O)N[C@@H](CCCNC(=N)N)C(=O)N[C@@H](C)C(N)=O)[C@@H](C)CC)C(C)C)C(C)C [HH2] (H-VQLRIRVAVIRA-NH2; N-terminus assumed) | 43 | 896 | >80 | 0.53 | 469* pg/ml |  |  |  |  | 3.6 | 450 | 1.00 | 1307 |  | 
11 | CC[C@H](C)[C@H](NC(=O)[C@H](CCCNC(=N)N)NC(=O)[C@H](CC(C)C)NC(=O)[C@H](CCC(N)=O)NC(=O)[C@@H](N)Cc1c[nH]c2ccccc12)C(=O)N[C@@H](CCCNC(=N)N)C(=O)N[C@H](C(=O)N[C@@H](CCCCN)C(=O)N[C@H](C(=O)N[C@H](C(=O)N[C@@H](CCCNC(=N)N)C(=O)N[C@@H](CCCCN)C(N)=O)[C@@H](C)CC)C(C)C)C(C)C [Peptide 2012] (H-WQLRIRVKVIRK-NH2; N-terminus assumed) | 227 | 4824 | 20 | 0.43 | 381* pg/ml |  |  |  |  |  |  |  |  |  | 
